Results published in ChEMBL document CHEMBL5046215, “Heparan Sulfate Mimetics Differentially Affect Homologous Chemokines and Attenuate Cancer Development” (J Med Chem, 2021).
The source made the active and inactive calls. The calls are words filed in the database; no cut-off is given here.

Columns and labels:
C-X-C motif chemokine 10 = molecular target: T1, C-X-C motif chemokine 10 (Homo sapiens, UniProt P02778); test: Binding affinity to human CXCL10 assessed as dissociation constant incubated for 3 mins by surface plasmon resonance analysis
T1 sequence (P02778 whole entry): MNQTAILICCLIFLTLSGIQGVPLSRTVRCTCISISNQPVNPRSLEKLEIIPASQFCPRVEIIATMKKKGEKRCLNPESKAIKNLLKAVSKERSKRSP

MCF7 [1] = test: Antimigratory activity against human MCF7 cells assessed as reduction in cell migration at 10 to 50 ug/ml measured after 5 hrs in presence of CCL2 by wound healing assay relative to control; type: functional; conditions: dose 10-50 µg/ml
C-C motif chemokine 2 [2] = molecular target: T2, C-C motif chemokine 2 (Homo sapiens, UniProt P13500); test: Binding affinity to human CCL2 assessed as on-rate constant incubated for 3 mins by surface plasmon resonance analysis
Target sequence in this assay (P13500 24-99 limits assumed): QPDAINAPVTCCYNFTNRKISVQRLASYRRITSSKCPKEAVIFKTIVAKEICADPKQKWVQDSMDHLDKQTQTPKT

C-C motif chemokine 2 [3] = molecular target: T2, C-C motif chemokine 2; test: Binding affinity to human CCL2 at 100 uM by glycan microarray analysis
Target sequence in this assay (P13500 24-99 limits assumed): as above

MCF7 [4] = test: Induction of cell cycle arrest in human MCF7 cells assessed as accumulation of cells at G2/M phase incubated for 72 hrs in presence of CCL2 by PI staining based flow cytometric analysis; type: functional
[5] = molecular target: T3, Stromal cell-derived factor 1 (Homo sapiens, UniProt P48061); test: Binding affinity to human CXCL12 at 100 uM by glycan microarray analysis
Interleukin-8 = molecular target: T4, Interleukin-8 (Homo sapiens, UniProt P10145); test: Binding affinity to human CXCL8 assessed as dissociation constant incubated for 3 mins by surface plasmon resonance analysis
T4 sequence (P10145 whole entry): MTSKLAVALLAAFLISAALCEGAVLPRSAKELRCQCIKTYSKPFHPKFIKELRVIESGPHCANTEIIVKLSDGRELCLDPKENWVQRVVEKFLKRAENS

C-C motif chemokine 2 [6] = molecular target: T2, C-C motif chemokine 2; test: Binding affinity to human CCL2 assessed as off-rate constant incubated for 3 mins by surface plasmon resonance analysis
Target sequence in this assay (P13500 24-99 limits assumed): as the sequence (P13500 24-99 limits assumed) above

MCF7 [7] = test: Antiinvasive activity against human MCF7 cells assessed as inhibition of cell invasion at 50 ug/ml measured after 24 hrs in presence of CCL2 by crystal violet staining based Boyden chamber analysis; type: functional; conditions: dose 50.0 µg/ml
Homo sapiens [8] = organism: Homo sapiens; test: Binding affinity to human CCL28 at 100 uM by glycan microarray analysis
MDA-MB-231 = test: Anti-proliferative activity against human MDA-MB-231 cells assessed as reduction in cell proliferation at 10 to 50 ug/ml compound pretreated with CCL2 followed by incubation with cells and measured after 48 hrs by Sulforhodamine B staining based WST assay; type: functional; conditions: dose 10-50 µg/ml, at 10 to 50 µg/mL
Homo sapiens [9] = organism: Homo sapiens; test: Binding affinity to human CCL21 at 100 uM by glycan microarray analysis
MCF7 [10] = test: Anti-proliferative activity against human MCF7 cells assessed as reduction in cell proliferation at 10 to 50 ug/ml compound pretreated with CCL2 followed by incubation with cells and measured after 48 hrs by Sulforhodamine B staining based WST assay; type: functional; conditions: dose 10-50 µg/ml, at 10 to 50 µg/mL
[11] = molecular target: Interleukin-8 (Homo sapiens) (UniProt P10145); test: Binding affinity to human CXCL8 assessed as on-rate constant incubated for 3 mins by surface plasmon resonance analysis
MCF7 [12] = test: Decrease in MAPK expression in human MCF7 cells at 50 ug/ml measured after 30 mins in presence of CCL2 by Western blot analysis; type: functional, cell-based; conditions: dose 50.0 µg/ml
[13] = molecular target: Interleukin-8 (Homo sapiens) (UniProt P10145); test: Binding affinity to human CXCL8 assessed as off-rate constant incubated for 3 mins by surface plasmon resonance analysis
[14] = molecular target: T5, C-C motif chemokine 5 (Homo sapiens) (UniProt P13501); test: Binding affinity to human CCL5 at 100 uM by glycan microarray analysis
T5 sequence (whole entry): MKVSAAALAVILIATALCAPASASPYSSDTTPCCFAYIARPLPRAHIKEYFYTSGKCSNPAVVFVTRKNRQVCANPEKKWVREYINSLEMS

[15] = molecular target: Interleukin-8 (Homo sapiens) (UniProt P10145); test: Binding affinity to human CXCL8 at 100 uM by glycan microarray analysis
Homo sapiens [16] = organism: Homo sapiens; test: Binding affinity to human CCL13 at 100 uM by glycan microarray analysis
[17] = molecular target: T3, Stromal cell-derived factor 1; test: Binding affinity to human CXCL12 assessed as dissociation constant incubated for 3 mins by surface plasmon resonance analysis
[18] = molecular target: C-X-C motif chemokine 10 (Homo sapiens) (UniProt P02778); test: Binding affinity to human CXCL10 at 100 uM by glycan microarray analysis
C-C motif chemokine 5 = molecular target: T6, C-C motif chemokine 5 (Homo sapiens, UniProt P13501); test: Binding affinity to human CCL5 assessed as dissociation constant incubated for 3 mins by surface plasmon resonance analysis
T6 sequence (P13501 whole entry): T5 sequence (whole entry)

[19] = molecular target: C-C motif chemokine 7 (Homo sapiens) (UniProt P80098); test: Binding affinity to human CCL7 at 100 uM by glycan microarray analysis
[20] = molecular target: T5, C-C motif chemokine 5 (Homo sapiens); test: Binding affinity to human CCL5 assessed as off-rate constant incubated for 3 mins by surface plasmon resonance analysis
C-C motif chemokine 2 [21] = molecular target: T2, C-C motif chemokine 2; test: Binding affinity to human CCL2 assessed as dissociation constant incubated for 3 mins by surface plasmon resonance analysis
Target sequence in this assay (P13500 whole entry): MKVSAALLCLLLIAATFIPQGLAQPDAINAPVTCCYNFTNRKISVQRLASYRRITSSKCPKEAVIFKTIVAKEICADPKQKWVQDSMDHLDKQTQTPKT

[22] = molecular target: T5, C-C motif chemokine 5 (Homo sapiens); test: Binding affinity to human CCL5 assessed as on-rate constant incubated for 3 mins by surface plasmon resonance analysis

C-C motif chemokine 7 (Homo sapiens), sequence (P80098 whole entry): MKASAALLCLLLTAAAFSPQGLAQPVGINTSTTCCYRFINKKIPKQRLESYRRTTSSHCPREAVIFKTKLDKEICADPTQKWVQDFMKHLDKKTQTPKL
T3 sequence (P48061 whole entry): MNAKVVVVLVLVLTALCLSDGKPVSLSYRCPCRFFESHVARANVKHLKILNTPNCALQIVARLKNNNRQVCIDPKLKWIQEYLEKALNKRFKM

Activity (C-C motif chemokine 2 [3]) [%]	Activity [5] [%]	Activity (Homo sapiens [8]) [%]	Activity (Homo sapiens [9]) [%]	Activity [14] [%]	Activity [15] [%]	Activity (Homo sapiens [16]) [%]	Activity [18] [%]	Activity [19] [%]	SMILES	other results
88	91	72	50	91	96	70	87	80	NCCOCCO[C@@H]1O[C@@H](C(=O)O)[C@@H](O[C@@H]2O[C@@H](C(=O)O)[C@@H](O[C@@H]3O[C@@H](C(=O)O)[C@@H](O[C@@H]4O[C@@H](C(=O)O)[C@@H](OS(=O)(=O)O)[C@H](O)[C@H]4OS(=O)(=O)O)[C@H](O)[C@H]3OS(=O)(=O)O)[C@H](O)[C@H]2OS(=O)(=O)O)[C@H](O)[C@H]1OS(=O)(=O)O	Kd (C-X-C motif chemokine 10): 19.5 µM; inhibition (INH) (MCF7 [1]; at 10 to 50 µg/mL): 34%; K (C-C motif chemokine 2 [2]): 1.26 10^5/M/s; Activity (MCF7 [4]): 19%; Kd (Interleukin-8): 9.34 µM; K (C-C motif chemokine 2 [6]): 2.1 10^-1/s; Activity (MCF7 [7]): Active; inhibition (INH) (MDA-MB-231): 40%; inhibition (INH) (MCF7 [10]): 40%; K [11]: 3.16 10^5/M/s; inhibition (MCF7 [12]): Active; K [13]: 2.96 10^-1/s; Kd [17]: 18.8 µM; Kd (C-C motif chemokine 5): 5.72 µM; K [20]: 2.4 10^-1/s; Kd (C-C motif chemokine 2 [21]): 1.67 µM; K [22]: 4.2 10^4/M/s
2	56	56	48	2	12	67	44	33	NCCOCCO[C@@H]1O[C@@H](C(=O)O)[C@@H](O[C@@H]2O[C@@H](C(=O)O)[C@@H](O[C@@H]3O[C@@H](C(=O)O)[C@@H](O[C@@H]4O[C@@H](C(=O)O)[C@@H](O)[C@H](O)[C@H]4O)[C@H](O)[C@H]3O)[C@H](O)[C@H]2O)[C@H](O)[C@H]1O	
69	98	76	86	86	83	88	96	87	NCCOCCO[C@@H]1O[C@@H](C(=O)O)[C@@H](O[C@@H]2O[C@@H](C(=O)O)[C@@H](OS(=O)(=O)O)[C@H](O)[C@H]2OS(=O)(=O)O)[C@H](O)[C@H]1OS(=O)(=O)O	
2	66	58	63	2	12	82	45	30	NCCOCCO[C@@H]1O[C@@H](C(=O)O)[C@@H](O[C@@H]2O[C@@H](C(=O)O)[C@@H](O)[C@H](O)[C@H]2O)[C@H](O)[C@H]1O	
0	38	72	46	1	5	69	24	17	NCCOCCO[C@@H]1O[C@@H](C(=O)O)[C@@H](O[C@@H]2O[C@@H](C(=O)O)[C@@H](O[C@@H]3O[C@@H](C(=O)O)[C@@H](O)[C@H](O)[C@H]3O)[C@H](O)[C@H]2O)[C@H](O)[C@H]1O	
0	45	54	60	10	13	72	23	12	NCCOCCO[C@@H]1O[C@@H](C(=O)O)[C@@H](O[C@@H]2O[C@@H](C(=O)O)[C@@H](O[C@@H]3O[C@@H](C(=O)O)[C@@H](O[C@@H]4O[C@@H](C(=O)O)[C@@H](OS(=O)(=O)O)[C@H](O)[C@H]4O)[C@H](O)[C@H]3O)[C@H](O)[C@H]2O)[C@H](O)[C@H]1O	Activity (MCF7 [1]): inactive
4	62	46	52	2	17	74	47	30	NCCOCCO[C@@H]1O[C@@H](C(=O)O)[C@@H](O)[C@H](O)[C@H]1O	
23	64	80	62	15	62	81	57	58	NCCOCCO[C@@H]1O[C@@H](C(=O)O)[C@@H](OS(=O)(=O)O)[C@H](O)[C@H]1O	
67	82	84	80	80	95	67	74	79	NCCOCCO[C@@H]1O[C@@H](C(=O)O)[C@@H](O[C@@H]2O[C@@H](C(=O)O)[C@@H](O[C@@H]3O[C@@H](C(=O)O)[C@@H](OS(=O)(=O)O)[C@H](O)[C@H]3OS(=O)(=O)O)[C@H](O)[C@H]2OS(=O)(=O)O)[C@H](O)[C@H]1OS(=O)(=O)O	
36	92	80	83	30	63	86	78	75	NCCOCCO[C@@H]1O[C@@H](C(=O)O)[C@@H](O[C@@H]2O[C@@H](C(=O)O)[C@@H](O[C@@H]3O[C@@H](C(=O)O)[C@@H](OS(=O)(=O)O)[C@H](O)[C@H]3O)[C@H](O)[C@H]2O)[C@H](O)[C@H]1O	
66	75	51	79	75	71	53	82	94	NCCOCCO[C@@H]1O[C@@H](C(=O)O)[C@@H](OS(=O)(=O)O)[C@H](O)[C@H]1OS(=O)(=O)O	
25	79	84	71	38	73	94	67	55	NCCOCCO[C@@H]1O[C@@H](C(=O)O)[C@@H](O[C@@H]2O[C@@H](C(=O)O)[C@@H](OS(=O)(=O)O)[C@H](O)[C@H]2O)[C@H](O)[C@H]1O	
